Data as given in ChEMBL document CHEMBL4043209, “1-Phenyl-1H-indole derivatives as a new class of Bcl-2/Mcl-1 dual inhibitors: Design, synthesis, and preliminary biological evaluation” (Bioorg Med Chem, 2017).

Experiments:
[1] = biological target: Apoptosis regulator Bcl-2 (Homo sapiens, UniProt P10415); assay: Inhibition of 5-FAM-Bid-BH3 peptide binding to Bcl2 (unknown origin) pre-incubated for 30 mins followed by further incubation with 5-FAM-Bid-BH3 peptide for 20 mins by fluorescence polarization assay
Chain of Apoptosis regulator Bcl-2 (P10415 whole entry): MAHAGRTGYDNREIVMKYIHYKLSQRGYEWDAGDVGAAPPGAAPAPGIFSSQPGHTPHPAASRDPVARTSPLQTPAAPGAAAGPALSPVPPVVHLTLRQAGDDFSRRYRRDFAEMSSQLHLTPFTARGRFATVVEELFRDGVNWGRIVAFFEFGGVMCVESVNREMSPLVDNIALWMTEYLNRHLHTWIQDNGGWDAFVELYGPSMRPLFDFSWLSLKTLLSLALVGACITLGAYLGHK

[2] = biological target: Bcl-2-like protein 1 (Homo sapiens, UniProt Q07817); assay: Inhibition of 5-FAM-Bid-BH3 peptide binding to Bcl-XL (unknown origin) pre-incubated for 30 mins followed by further incubation with 5-FAM-Bid-BH3 peptide for 20 mins by fluorescence polarization assay
Chain of Bcl-2-like protein 1 (Q07817 whole entry): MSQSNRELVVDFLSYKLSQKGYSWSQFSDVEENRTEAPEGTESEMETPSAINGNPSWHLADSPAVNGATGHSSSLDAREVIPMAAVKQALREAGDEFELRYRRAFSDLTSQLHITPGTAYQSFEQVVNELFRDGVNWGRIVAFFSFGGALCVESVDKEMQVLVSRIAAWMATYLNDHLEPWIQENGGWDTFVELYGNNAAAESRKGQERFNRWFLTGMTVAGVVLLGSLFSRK

[3] = biological target: Induced myeloid leukemia cell differentiation protein Mcl-1 (Homo sapiens, UniProt Q07820); assay: Inhibition of 5-FAM-Bid-BH3 peptide binding to Mcl1 (unknown origin) pre-incubated for 30 mins followed by further incubation with 5-FAM-Bid-BH3 peptide for 20 mins by fluorescence polarization assay
Chain of Induced myeloid leukemia cell differentiation protein Mcl-1 (Q07820 whole entry): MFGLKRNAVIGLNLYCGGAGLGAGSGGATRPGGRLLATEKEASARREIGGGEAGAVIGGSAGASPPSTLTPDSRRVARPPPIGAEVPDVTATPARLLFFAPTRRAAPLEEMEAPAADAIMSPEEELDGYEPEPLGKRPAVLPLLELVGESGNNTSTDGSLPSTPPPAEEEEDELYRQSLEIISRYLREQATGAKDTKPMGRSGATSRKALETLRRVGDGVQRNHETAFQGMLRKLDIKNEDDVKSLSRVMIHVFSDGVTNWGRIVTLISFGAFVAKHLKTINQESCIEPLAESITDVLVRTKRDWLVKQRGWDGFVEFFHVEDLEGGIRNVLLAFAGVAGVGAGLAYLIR

[4] = tested on: MDA-MB-231; assay: Antiproliferative activity against human MDA-MB-231 cells incubated for 48 hrs by MTT assay; assay type: functional, cell-based; conditions: MDA-MB-231, 48 h
[5] = tested on: PC-3; assay: Antiproliferative activity against human PC3 cells incubated for 48 hrs by MTT assay; assay type: functional, cell-based; conditions: PC-3, 48 h
[6] = tested on: K562; assay: Antiproliferative activity against human K562 cells incubated for 48 hrs by MTT assay; assay type: functional, cell-based; conditions: K562, 48 h

| Ki [1] | SMILES | other results |
| --- | --- | --- |
| 0.83 µM | COc1ccc2c(c1)c(CC(=O)N[C@@H](Cc1c[nH]c3ccccc13)C(=O)NS(=O)(=O)c1ccc(Cl)c([N+](=O)[O-])c1)c(C)n2-c1ccc(-c2ccccc2)cc1 |  |
| 0.35 µM | COc1ccc2c(c1)c(CC(=O)N[C@@H](Cc1ccccc1)C(=O)NS(=O)(=O)c1ccccc1)c(C)n2-c1ccc(-c2ccccc2)cc1 | Ki [2]: Not Active; Ki [3]: 0.96 µM; IC50 [4]: 33.5 µM; IC50 [5]: 17.5 µM; IC50 [6]: 18.8 µM |
| > 10 µM | COc1ccc2c(c1)c(CC(=O)N[C@@H](Cc1ccccc1)C(=O)NS(=O)(=O)c1ccccc1)c(C)n2-c1ccc(C)cc1 |  |
| 0.58 µM | COc1ccc2c(c1)c(CC(=O)N[C@@H](Cc1ccccc1)C(=O)NS(=O)(=O)c1ccc(Cl)c([N+](=O)[O-])c1)c(C)n2-c1ccc(-c2ccccc2)cc1 | Ki [2]: Not Active; Ki [3]: 0.48 µM; IC50 [4]: 42.1 µM; IC50 [5]: 13.9 µM; IC50 [6]: 13 µM |
| > 10 µM | COc1ccc2c(c1)c(CC(=O)NS(=O)(=O)c1ccc(NCCSc3ccccc3)c([N+](=O)[O-])c1)c(C)n2-c1ccc(-c2ccccc2)cc1 |  |
| > 10 µM | COc1ccc2c(c1)c(CC(=O)NS(=O)(=O)c1ccc(N3CCOCC3)c([N+](=O)[O-])c1)c(C)n2-c1ccc(C)cc1 |  |
| > 10 µM | COc1ccc2c(c1)c(CC(=O)N[C@@H](Cc1c[nH]c3ccccc13)C(=O)NS(=O)(=O)c1ccccc1)c(C)n2-c1ccc(-c2ccccc2)cc1 |  |
| 0.91 µM | COc1ccc2c(c1)c(CC(=O)N[C@@H](Cc1ccccc1)C(=O)NS(=O)(=O)c1ccc(Cl)cc1)c(C)n2-c1ccc(-c2ccccc2)cc1 |  |
| > 10 µM | COc1ccc(S(=O)(=O)NC(=O)Cc2c(C)n(-c3ccc(-c4ccccc4)cc3)c3ccc(OC)cc23)cc1 |  |
| > 10 µM | COc1ccc2c(c1)c(CC(=O)NS(=O)(=O)c1ccc([N+](=O)[O-])cc1)c(C)n2-c1ccc(C)cc1 |  |
| > 10 µM | COc1ccc2c(c1)c(CC(=O)N[C@@H](Cc1ccc(OCc3ccc([N+](=O)[O-])cc3)cc1)C(=O)NS(=O)(=O)c1ccc(Cl)c([N+](=O)[O-])c1)c(C)n2-c1ccc(-c2ccccc2)cc1 |  |
| > 10 µM | COc1ccc2c(c1)c(CC(=O)NS(=O)(=O)c1ccc(NC3CCCCC3)c([N+](=O)[O-])c1)c(C)n2-c1ccc(-c2ccccc2)cc1 |  |
| > 10 µM | COc1ccc2c(c1)c(CC(=O)NS(=O)(=O)c1ccccc1)c(C)n2-c1ccc(-c2ccccc2)cc1 |  |
| 0.94 µM | Cc1ccc(S(=O)(=O)NC(=O)[C@H](Cc2ccccc2)N2C(=O)/C(=C/c3ccc(-c4ccccc4)cc3)SC2=S)cc1 | Ki ([2]; read-out: Ki): 1.2 µM; Ki [3]: 0.47 µM; IC50 [4]: 45.9 µM; IC50 [5]: 30.1 µM; IC50 [6]: 44 µM |
| 0.91 µM | COc1ccc2c(c1)c(CC(=O)N[C@@H](Cc1ccccc1)C(=O)NS(=O)(=O)c1ccc([N+](=O)[O-])cc1)c(C)n2-c1ccc(-c2ccccc2)cc1 |  |
| 0.72 µM | COc1ccc2c(c1)c(CC(=O)N[C@@H](Cc1ccc(OCc3ccc([N+](=O)[O-])cc3)cc1)C(=O)NS(=O)(=O)c1ccc(Cl)c([N+](=O)[O-])c1)c(C)n2-c1ccc(C)cc1 |  |
| > 10 µM | COc1ccc(S(=O)(=O)NC(=O)Cc2c(C)n(-c3ccc(C)cc3)c3ccc(OC)cc23)cc1 |  |
| > 10 µM | COc1ccc2c(c1)c(CC(=O)NS(=O)(=O)c1ccc(Cl)c([N+](=O)[O-])c1)c(C)n2-c1ccc(C)cc1 |  |
| > 10 µM | COc1ccc2c(c1)c(CC(=O)NS(=O)(=O)c1ccc(N3CCN(C)CC3)c([N+](=O)[O-])c1)c(C)n2-c1ccc(C)cc1 |  |
| > 10 µM | COc1ccc2c(c1)c(CC(=O)NS(=O)(=O)c1ccc(NCc3ccccc3)c([N+](=O)[O-])c1)c(C)n2-c1ccc(C)cc1 |  |
| > 10 µM | COc1ccc2c(c1)c(CC(=O)NS(=O)(=O)c1ccc(NCc3ccccc3)c([N+](=O)[O-])c1)c(C)n2-c1ccc(-c2ccccc2)cc1 |  |
| 0.72 µM | COc1ccc2c(c1)c(CC(=O)NS(=O)(=O)c1ccc(Cl)c([N+](=O)[O-])c1)c(C)n2-c1ccc(-c2ccccc2)cc1 |  |
| > 10 µM | COc1ccc2c(c1)c(CC(=O)N[C@@H](Cc1ccccc1)C(=O)NS(=O)(=O)c1ccc(-c3ccccc3)cc1)c(C)n2-c1ccc(-c2ccccc2)cc1 |  |
| > 10 µM | COc1ccc2c(c1)c(CC(=O)NS(=O)(=O)c1ccc(NCCCc3ccccc3)c([N+](=O)[O-])c1)c(C)n2-c1ccc(-c2ccccc2)cc1 |  |
| > 10 µM | COc1ccc2c(c1)c(CC(=O)NS(=O)(=O)c1ccc(N3CCOCC3)c([N+](=O)[O-])c1)c(C)n2-c1ccc(-c2ccccc2)cc1 |  |
| 0.47 µM | COc1ccc(S(=O)(=O)NC(=O)[C@H](Cc2ccccc2)NC(=O)Cc2c(C)n(-c3ccc(-c4ccccc4)cc3)c3ccc(OC)cc23)cc1 | Ki [2]: Not Active; Ki [3]: 0.88 µM; IC50 [4]: 38.6 µM; IC50 [5]: 23.5 µM; IC50 [6]: 27.5 µM |
| > 10 µM | COc1ccc(S(=O)(=O)NC(=O)[C@H](Cc2c[nH]c3ccccc23)NC(=O)Cc2c(C)n(-c3ccc(-c4ccccc4)cc3)c3ccc(OC)cc23)cc1 |  |
